# From ChEMBL document CHEMBL1201862, “PubChem BioAssay data set” (2004)
# Values joined by “and” are separate entries in the source; they are usually repeats but may differ in a detail not shown here. Identical values can stand only once. Counter-ions that a name gives are not always drawn. Active and inactive are the calls of the source.
# Tests used:
# [1] = target: T1, Sphingosine 1-phosphate receptor 4 (Homo sapiens, UniProt O95977); assay: Late-stage fluorescence dose response cell-based assay to identify agonists of the Sphingosine 1-Phosphate Receptor 4 (S1P4): purchased compounds EC50. [Related pubchem assays (depositor defined):AID1509, AID1523, AID1563, AID1686, AID1701, AID1801]; assay type: functional
# T1 sequence (O95977 whole entry): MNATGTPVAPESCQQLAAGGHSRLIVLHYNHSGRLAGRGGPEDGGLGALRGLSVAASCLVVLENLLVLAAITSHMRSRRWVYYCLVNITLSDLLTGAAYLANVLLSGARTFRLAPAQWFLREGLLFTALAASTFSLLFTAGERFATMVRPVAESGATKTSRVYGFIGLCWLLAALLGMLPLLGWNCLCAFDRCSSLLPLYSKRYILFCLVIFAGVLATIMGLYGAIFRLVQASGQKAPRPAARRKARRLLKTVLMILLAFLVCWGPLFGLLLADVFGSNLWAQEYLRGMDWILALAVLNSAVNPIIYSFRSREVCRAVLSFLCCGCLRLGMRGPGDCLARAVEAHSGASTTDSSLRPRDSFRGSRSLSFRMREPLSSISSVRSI
# Coagulation factor XII = Coagulation factor XII (Homo sapiens, UniProt P00748); assay type: functional;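 also: activated factor XIIa alpha cleaving a fluorogenic AMC peptide substrate; inhibitor potency from loss of enzyme activity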
# Hexokinase-1 = target: T2, Hexokinase-1 (Homo sapiens, UniProt P19367); assay: hexokinase 1 activators, dose response, selectivity assay for HKDC1 activator project, biochemical (AID 504762); assay type: functional
# T2 sequence (P19367 whole entry): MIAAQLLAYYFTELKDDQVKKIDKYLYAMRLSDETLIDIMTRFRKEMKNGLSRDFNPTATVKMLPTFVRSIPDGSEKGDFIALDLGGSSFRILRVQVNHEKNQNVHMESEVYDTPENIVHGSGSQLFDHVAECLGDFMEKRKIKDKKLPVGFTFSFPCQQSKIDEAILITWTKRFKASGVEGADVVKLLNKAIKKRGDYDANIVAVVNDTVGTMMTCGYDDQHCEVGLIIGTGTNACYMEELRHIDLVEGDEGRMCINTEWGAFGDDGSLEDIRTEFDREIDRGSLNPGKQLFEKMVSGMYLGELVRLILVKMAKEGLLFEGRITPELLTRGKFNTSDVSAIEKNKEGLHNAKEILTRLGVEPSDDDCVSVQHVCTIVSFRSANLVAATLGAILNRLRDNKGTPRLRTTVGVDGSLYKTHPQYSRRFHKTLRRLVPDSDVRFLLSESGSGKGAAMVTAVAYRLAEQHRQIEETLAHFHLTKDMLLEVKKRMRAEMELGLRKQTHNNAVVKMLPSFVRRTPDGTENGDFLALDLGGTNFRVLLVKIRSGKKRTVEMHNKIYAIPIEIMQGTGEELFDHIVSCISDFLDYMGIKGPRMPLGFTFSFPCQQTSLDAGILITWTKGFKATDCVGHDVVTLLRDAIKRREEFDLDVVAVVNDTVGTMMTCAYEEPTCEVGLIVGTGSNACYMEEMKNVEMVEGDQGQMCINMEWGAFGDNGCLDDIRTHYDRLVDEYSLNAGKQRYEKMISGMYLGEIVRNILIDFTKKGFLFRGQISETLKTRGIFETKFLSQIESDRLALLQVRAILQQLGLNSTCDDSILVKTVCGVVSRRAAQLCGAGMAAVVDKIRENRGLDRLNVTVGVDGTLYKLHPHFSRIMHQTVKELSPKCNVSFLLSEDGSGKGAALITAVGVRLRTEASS
# Hexokinase HKDC1 = target: T3, Hexokinase HKDC1 (Homo sapiens, UniProt Q2TB90); assay: HKDC1 hexokinase activators, dose response, biochemical, W721R variant (AID 504730); assay type: functional
# T3 sequence (Q2TB90 whole entry): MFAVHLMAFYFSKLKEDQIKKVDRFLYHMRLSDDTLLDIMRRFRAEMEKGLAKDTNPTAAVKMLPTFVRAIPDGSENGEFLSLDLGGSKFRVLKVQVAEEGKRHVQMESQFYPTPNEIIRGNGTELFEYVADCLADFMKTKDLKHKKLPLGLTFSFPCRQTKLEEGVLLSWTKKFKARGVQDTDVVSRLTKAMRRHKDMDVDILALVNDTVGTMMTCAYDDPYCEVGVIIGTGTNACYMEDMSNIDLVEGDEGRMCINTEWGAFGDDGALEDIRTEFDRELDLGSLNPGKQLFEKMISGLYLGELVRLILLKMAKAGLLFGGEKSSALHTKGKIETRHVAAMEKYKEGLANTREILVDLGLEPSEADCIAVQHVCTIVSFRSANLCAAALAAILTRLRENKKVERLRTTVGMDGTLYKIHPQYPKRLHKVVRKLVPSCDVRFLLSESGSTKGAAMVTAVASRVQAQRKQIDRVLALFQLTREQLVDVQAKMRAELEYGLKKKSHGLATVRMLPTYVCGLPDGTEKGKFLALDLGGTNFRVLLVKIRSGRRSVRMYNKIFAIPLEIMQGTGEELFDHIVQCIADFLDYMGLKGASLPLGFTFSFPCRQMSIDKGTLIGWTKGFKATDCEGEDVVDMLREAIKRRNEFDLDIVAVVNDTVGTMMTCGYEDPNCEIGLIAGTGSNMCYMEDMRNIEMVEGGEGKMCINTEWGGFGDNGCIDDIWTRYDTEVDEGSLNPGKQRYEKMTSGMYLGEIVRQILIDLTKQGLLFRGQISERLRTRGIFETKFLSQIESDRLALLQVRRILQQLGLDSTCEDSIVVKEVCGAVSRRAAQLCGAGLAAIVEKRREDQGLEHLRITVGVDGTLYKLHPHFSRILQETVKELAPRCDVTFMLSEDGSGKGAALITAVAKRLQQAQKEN
# [2] = cytotoxicity in HEK-293T NF-kB-Luc cells, dose response, cytotoxicity control for B/T-cell NF-kB inhibitor project, cell-based, uHTS hits (AID 489019); assay type: functional;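 also: IC50 reflects cytotoxicity as loss of cell viability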
# BJ = assay: cytotoxicity toward Ras-transformed BJeLR fibroblasts, dose response, cell-based, alamar blue fluorescence, cherrypicked samples (AID 2631); assay type: functional; conditions: Homo sapiens;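 also: confirmatory dose-response assay in RAS-dependent BJ fibroblasts engineered with TERT, LT and ST, with cytotoxicity read by fluorescence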
# [3] = microbe, parasite or virus in culture; assay type: functional; conditions: Mycobacterium tuberculosis
# Ion channel NompC = Ion channel NompC (Danio rerio, UniProt Q7T1G6); assay: Dose response cell-based high-throughput screening assay for agonists of the transient receptor potential channel N1 (TRPN1). [Related pubchem assays (depositor defined):AID1424, AID1448]; assay type: functional
# Mucolipin-3 = target: T4, Mucolipin-3 (Homo sapiens, UniProt Q8TDD5); assay: Fluorescence counterscreen assay for […] agonists: dose response cell-based high-throughput screening assay to identify agonists of the transient receptor potential channel ML3 (TRPML3). [Related pubchem assays: 1424, 1448 ]; assay type: functional
# T4 sequence (Q8TDD5 whole entry): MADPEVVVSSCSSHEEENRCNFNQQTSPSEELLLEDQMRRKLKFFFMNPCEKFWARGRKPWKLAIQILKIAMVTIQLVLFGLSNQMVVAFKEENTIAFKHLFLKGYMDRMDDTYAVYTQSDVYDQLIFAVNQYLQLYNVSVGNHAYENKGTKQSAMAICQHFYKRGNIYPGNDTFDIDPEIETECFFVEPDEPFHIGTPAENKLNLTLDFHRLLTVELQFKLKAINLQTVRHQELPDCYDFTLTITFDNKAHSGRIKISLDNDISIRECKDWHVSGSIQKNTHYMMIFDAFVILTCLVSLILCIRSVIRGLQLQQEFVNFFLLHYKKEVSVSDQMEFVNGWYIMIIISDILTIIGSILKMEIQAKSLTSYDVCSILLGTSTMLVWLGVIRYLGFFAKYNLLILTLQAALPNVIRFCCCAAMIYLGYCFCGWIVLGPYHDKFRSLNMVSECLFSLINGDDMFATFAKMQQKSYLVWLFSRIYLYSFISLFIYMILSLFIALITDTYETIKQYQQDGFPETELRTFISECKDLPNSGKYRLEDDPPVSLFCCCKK
# [4] = target: T5, Rac GTPase-activating protein 1 (Homo sapiens, UniProt Q9H0H5); assay: MgcRacGAP GTPase-activating activity inhibitors, confirmation, biochemical, ADP Hunter fluorescence, primary and confirmatory (AID 624330); assay type: functional
# T5 sequence (Q9H0H5 whole entry): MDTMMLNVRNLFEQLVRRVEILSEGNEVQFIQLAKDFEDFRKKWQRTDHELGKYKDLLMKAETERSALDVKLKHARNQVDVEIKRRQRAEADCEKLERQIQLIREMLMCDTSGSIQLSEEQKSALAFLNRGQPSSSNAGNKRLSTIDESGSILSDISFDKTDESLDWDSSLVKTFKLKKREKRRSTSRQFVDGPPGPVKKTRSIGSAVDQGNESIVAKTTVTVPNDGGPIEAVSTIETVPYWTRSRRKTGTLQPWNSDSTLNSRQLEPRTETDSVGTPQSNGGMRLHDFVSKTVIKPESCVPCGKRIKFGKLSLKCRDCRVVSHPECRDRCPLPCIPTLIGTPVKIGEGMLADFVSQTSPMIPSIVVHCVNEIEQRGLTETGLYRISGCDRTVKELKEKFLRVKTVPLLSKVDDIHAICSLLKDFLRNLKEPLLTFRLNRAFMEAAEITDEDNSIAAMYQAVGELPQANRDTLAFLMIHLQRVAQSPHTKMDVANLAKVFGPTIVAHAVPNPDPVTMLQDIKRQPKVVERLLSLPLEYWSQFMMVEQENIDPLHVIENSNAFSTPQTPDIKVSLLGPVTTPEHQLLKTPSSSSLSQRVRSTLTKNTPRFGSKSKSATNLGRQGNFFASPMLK
# [5] = target: Induced myeloid leukemia cell differentiation protein Mcl-1 (Homo sapiens, UniProt Q07820); assay type: functional
# [6] = target: Glucose-6-phosphate 1-dehydrogenase (Homo sapiens, UniProt P11413); assay: human G6PD enzyme inhibitors, dose response, selectivity assay for P. falciparum G6PD inhibitor project, biochemical, fluorescence (AID 504792); assay type: functional
# [7] = target: T6, Mannose-6-phosphate isomerase (Homo sapiens, UniProt P34949); assay: human PMI inhibitors, high substrate, primary screen, biochemical, fluorescence intensity, high mannose 6-phosphate (AID 1220)
# T6 sequence (P34949 whole entry): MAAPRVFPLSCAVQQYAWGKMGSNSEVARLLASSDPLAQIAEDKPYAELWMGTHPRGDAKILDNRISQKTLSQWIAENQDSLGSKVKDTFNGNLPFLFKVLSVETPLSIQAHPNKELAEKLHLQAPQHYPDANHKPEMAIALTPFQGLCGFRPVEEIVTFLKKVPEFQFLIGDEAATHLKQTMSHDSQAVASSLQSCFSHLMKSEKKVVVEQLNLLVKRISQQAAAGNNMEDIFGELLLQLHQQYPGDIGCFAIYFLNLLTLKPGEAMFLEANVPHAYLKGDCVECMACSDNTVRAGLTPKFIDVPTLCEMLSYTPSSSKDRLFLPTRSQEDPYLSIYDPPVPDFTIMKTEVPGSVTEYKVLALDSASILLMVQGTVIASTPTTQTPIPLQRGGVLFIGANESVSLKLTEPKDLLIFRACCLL
# [8] = target: T7, Neuropeptides B/W receptor type 1 (Homo sapiens, UniProt P48145); assay: Fluorescence-based dose response cell-based high throughput screening assay to identify antagonists of the G-protein coupled receptor 7 (GPR7). [Related pubchem assays: 1952 (Screening assay (GPR7 antagonists).), 1880 (Summary AID.)]; assay type: functional
# T7 sequence (P48145 whole entry): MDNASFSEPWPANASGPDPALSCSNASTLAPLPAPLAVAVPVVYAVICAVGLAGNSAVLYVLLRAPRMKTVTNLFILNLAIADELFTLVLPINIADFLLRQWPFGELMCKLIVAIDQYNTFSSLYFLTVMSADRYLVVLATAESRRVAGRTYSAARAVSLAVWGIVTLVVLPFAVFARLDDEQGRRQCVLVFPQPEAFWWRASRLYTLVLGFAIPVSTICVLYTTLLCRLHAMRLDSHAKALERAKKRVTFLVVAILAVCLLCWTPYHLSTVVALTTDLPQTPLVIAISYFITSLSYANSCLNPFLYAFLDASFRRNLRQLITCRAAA
# [9] = target: Melanin-concentrating hormone receptor 1 (Homo sapiens, UniProt Q99705); assay: Fluorescence-based counterscreen for antagonists of the G-protein coupled receptor 7 (GPR7): cell-based high throughput dose response assay to identify antagonists of the melanin-concentrating hormone receptor 1 (MCHR1).; assay type: functional
# Sequence of Melanin-concentrating hormone receptor 1 (Q99705 whole entry): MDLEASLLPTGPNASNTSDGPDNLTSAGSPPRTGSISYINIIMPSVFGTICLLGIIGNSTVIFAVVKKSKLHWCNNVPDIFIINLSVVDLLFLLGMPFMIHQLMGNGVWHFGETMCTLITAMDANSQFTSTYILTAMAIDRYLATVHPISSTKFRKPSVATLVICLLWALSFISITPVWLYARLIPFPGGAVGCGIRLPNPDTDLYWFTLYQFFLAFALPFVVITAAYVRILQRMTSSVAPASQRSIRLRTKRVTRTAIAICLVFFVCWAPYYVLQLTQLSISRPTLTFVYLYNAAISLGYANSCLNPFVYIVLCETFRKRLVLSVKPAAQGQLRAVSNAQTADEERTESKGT
# Sequence of Ion channel NompC (Q7T1G6 whole entry): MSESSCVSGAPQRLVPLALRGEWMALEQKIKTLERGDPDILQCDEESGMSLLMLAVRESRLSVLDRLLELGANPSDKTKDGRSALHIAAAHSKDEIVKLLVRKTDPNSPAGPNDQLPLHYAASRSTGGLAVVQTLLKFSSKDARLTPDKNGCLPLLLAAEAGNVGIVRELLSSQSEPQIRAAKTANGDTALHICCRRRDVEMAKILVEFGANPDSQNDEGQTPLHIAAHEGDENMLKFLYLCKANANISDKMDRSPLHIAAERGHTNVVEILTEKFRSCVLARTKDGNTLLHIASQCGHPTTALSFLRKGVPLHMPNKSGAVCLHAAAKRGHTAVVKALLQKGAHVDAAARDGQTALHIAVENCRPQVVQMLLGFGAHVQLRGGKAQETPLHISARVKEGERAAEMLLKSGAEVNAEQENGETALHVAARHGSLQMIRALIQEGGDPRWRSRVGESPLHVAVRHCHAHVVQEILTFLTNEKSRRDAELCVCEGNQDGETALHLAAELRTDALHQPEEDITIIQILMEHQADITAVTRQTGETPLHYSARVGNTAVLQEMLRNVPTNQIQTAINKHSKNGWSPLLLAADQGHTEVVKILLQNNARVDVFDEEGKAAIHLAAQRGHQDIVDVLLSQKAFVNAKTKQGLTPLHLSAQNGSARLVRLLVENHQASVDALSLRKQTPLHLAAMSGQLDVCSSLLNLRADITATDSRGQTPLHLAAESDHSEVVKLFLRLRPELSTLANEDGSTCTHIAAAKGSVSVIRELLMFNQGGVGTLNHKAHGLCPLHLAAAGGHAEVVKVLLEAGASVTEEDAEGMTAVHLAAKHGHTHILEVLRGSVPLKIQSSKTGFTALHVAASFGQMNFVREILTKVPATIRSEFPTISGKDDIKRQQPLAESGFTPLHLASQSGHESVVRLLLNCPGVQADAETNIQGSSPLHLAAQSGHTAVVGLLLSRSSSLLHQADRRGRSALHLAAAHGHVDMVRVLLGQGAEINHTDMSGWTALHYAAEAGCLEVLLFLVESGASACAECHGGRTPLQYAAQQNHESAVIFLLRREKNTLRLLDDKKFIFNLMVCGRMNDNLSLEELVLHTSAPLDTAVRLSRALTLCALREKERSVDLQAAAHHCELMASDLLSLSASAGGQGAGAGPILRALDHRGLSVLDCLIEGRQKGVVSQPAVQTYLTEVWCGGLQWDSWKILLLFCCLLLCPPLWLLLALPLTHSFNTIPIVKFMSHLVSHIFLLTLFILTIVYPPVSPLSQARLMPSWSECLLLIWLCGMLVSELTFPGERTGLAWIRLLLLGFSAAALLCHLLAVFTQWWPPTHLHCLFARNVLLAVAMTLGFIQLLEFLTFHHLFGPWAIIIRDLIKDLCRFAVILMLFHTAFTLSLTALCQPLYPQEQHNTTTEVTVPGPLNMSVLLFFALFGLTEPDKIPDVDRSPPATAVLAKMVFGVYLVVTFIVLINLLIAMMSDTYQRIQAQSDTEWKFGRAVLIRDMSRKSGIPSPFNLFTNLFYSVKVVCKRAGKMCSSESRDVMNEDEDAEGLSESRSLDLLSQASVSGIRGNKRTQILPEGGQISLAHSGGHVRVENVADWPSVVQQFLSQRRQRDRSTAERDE
# Sequence of Coagulation factor XII (P00748 20-372 limits assumed): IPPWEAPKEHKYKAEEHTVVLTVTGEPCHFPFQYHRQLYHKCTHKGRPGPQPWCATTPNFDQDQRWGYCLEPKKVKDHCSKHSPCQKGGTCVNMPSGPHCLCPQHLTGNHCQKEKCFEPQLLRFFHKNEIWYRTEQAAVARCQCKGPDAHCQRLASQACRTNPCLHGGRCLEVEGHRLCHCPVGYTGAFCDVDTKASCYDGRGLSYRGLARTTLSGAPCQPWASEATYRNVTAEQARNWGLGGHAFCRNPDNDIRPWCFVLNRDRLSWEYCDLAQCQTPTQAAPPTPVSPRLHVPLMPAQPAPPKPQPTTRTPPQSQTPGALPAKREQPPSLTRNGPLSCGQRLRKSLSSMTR
# Sequence of Coagulation factor XII (P00748 373-615 limits assumed): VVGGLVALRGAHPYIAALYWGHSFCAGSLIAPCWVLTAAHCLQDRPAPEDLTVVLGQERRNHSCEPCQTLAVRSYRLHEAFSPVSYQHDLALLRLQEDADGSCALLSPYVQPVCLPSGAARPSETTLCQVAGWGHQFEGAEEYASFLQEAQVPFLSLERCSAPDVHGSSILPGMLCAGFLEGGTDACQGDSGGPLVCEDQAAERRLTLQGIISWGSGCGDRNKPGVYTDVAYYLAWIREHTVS
# Sequence of Induced myeloid leukemia cell differentiation protein Mcl-1 (Q07820 whole entry): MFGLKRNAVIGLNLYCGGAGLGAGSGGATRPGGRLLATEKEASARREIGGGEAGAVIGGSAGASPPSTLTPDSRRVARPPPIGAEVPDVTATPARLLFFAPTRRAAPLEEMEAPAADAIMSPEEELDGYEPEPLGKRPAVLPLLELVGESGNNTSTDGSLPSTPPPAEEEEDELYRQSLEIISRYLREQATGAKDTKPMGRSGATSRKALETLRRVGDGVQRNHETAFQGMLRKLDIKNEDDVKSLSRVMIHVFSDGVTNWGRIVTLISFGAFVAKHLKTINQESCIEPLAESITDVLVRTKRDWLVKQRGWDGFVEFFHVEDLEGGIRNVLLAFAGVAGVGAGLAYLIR
# Sequence of Glucose-6-phosphate 1-dehydrogenase (P11413 whole entry): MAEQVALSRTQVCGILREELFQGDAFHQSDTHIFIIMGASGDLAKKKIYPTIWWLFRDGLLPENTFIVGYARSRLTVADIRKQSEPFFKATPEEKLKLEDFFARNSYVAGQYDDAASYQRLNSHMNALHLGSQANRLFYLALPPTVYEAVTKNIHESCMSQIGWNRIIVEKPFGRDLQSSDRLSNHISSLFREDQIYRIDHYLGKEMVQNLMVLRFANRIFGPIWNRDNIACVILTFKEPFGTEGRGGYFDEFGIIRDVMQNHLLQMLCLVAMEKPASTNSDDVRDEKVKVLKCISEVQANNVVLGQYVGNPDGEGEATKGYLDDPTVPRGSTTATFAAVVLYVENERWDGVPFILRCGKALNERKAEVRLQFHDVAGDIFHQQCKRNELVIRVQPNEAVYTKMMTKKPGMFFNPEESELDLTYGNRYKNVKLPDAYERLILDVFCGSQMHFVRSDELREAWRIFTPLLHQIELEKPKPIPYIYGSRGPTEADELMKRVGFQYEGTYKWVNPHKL
smiles,measurement,setting,value
Cc1ccc(OCC(=O)NCCc2ccc(Cl)cc2Cl)c([N+](=O)[O-])n1,EC50,[1],> 50 µM (inactive)
CC(=O)c1sc(NC(=O)COc2ccc(Cl)cc2C)nc1C,IC50,Coagulation factor XII,> 50 µM (inactive)
COc1ccc(NC2=NN=C(c3ccc4c(c3)OCCO4)CS2)cc1,EC50,Hexokinase-1,23.9 µM (inactive)
same,EC50,Hexokinase HKDC1,25 µM (inactive)
COc1cccc2c1C(=O)c1c(O)c3c(c(O)c1C2=O)C[C@@](O)(C(=O)CO)C[C@@H]3O[C@H]1C[C@H](N)[C@@H](O)[C@H](C)O1 [EPIRUBICIN HYDROCHLORIDE],IC50,[2],> 80 µM (inactive)
same,EC50,BJ,< 0.104 µM (active)
same,CC50,[3],18.7 µM (active)
O=C1/C(=C\c2ccc(O)cc2)SC(=S)N1/N=C/c1ccc(O)cc1,EC50,Ion channel NompC,4.9 µM (active)
same,EC50,Mucolipin-3,> 29.9 µM (not active)
same,IC50,[4],105 µM (active)
same,IC50,[5],2.48 µM (active)
CCn1c2ccccc2c2nc3cc(S(=O)(=O)N4CCOCC4)ccc3nc21,EC50,Hexokinase-1,> 80 µM (inactive)
same,IC50,[6],> 80 µM (inactive)
same,IC50,[7],20 µM (active)
same,EC50,Hexokinase HKDC1,> 80 µM (inactive)
CCNC(=O)NC(=O)C(C)OC(=O)c1c(C)nn(Cc2ccccc2Cl)c1Cl (stereo unspecified),EC50,[1],1.5 µM (active) and 2.5 µM (active)
O=C(CN1C(=O)C2C3CC(C(Br)C3Br)C2C1=O)N1CCN(Cc2ccccc2)CC1 (stereo unspecified),IC50,[8],4.18 µM (active)
same,EC50,Ion channel NompC,16.9 µM (inactive)
same,IC50,[9],20.7 µM (not active)
same,EC50,Mucolipin-3,> 29.9 µM (not active)
COc1ccccc1CN1CCNC(=O)C1CC(=O)N(C)Cc1cnccn1 (stereo unspecified),IC50,Coagulation factor XII,> 50 µM (inactive)
